Results reported in US9326513B2, “Fungicidal compositions” (Syngenta Participations AG, priority 2011, dated 2016).

What was measured:
Format in all cases: in vivo
Conditions in all cases: foliar, compared to untreated control leaf disks, read-out: disease control
[1] = system: Blumeria graminis f. sp. tritici (Erysiphe graminis f. sp. tritici); assay: Blumeria graminis f. sp. tritici / wheat / leaf disc preventative (powdery mildew on wheat)
Method in brief: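 Preventative leaf-disc test: compound (200 ppm) was sprayed onto cv. Kanzler wheat segments, which were dusted with conidia from infected plants 1 day after application. After incubation at 20° C and 60% rh, disease control relative to untreated segments was rated 6-8 days after application.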

Pyrenophora teres = Pyrenophora teres / barley / leaf disc preventative (net blotch)
From the text: Pyrenophora teres/Barley/Leaf Disc Preventative (Net Blotch) Barley leaf segments cv. Hasso were placed on agar in a multiwell plate (24-well format) and sprayed with the formulated test compound diluted in water. The leaf segments were inoculated with a spore suspension of the fungus 2 days after application.

[2] = system: Puccinia recondita f. sp. tritici; assay: Puccinia recondita f. sp. tritici / wheat / leaf disc preventative (brown rust)
From the text: Puccinia recondita f. sp. tritici/Wheat/Leaf Disc Preventative (Brown Rust) Wheat leaf segments cv. Kanzler were placed on agar in multiwell plates (24-well format) and sprayed with the formulated test compound diluted in water. The leaf disks were inoculated with a spore suspension of the fungus 1 day after application.

[3] = system: Puccinia recondita f. sp. tritici; assay: Puccinia recondita f. sp. tritici / wheat / leaf disc curative (brown rust)
Experimental: Puccinia recondita f. sp. tritici/Wheat/Leaf Disc Curative (Brown Rust) Wheat leaf segments cv. Kanzler are placed on agar in multiwell plates (24-well format). The leaf segments are inoculated with a spore suspension of the fungus. Plates were stored in darkness at 19° C. and 75% rh. The formulated test compound diluted in water was applied 1 day after inoculation.

Measured: pest or weed control at 200 ppm

CCN(C)/C=N/c1cc(C)c(O[C@H]2CC[C@@H](C(C)C)CC2)nc1C [Q.186]
≥ 50%: all assays above

CCN(C)/C=N/c1cc(Br)c(OCc2ccc(C(F)(F)F)nc2)nc1C [Q.136]
≥ 50%: all assays above

CCN(C)/C=N/c1cc(Br)c(OC(C)Cc2cc(C)cc(C)c2)nc1C (stereo not drawn) [Q.219]
≥ 50%: all assays above

CCN(C)/C=N/c1cc(Br)c(OCc2cccc(C(F)F)c2)nc1C [Q.170]
≥ 50%: all assays above

CCN(C)/C=N/c1cc(Br)c(OCc2ccc3ncccc3c2)nc1C [Q.209]
≥ 50%: all assays above

CCN(C)/C=N/c1cc(Br)c(OC2CCSCC2)nc1C [Q.158]
≥ 50%: all assays above

CCCC(C)Oc1nc(C)c(/N=C/N(C)CC)cc1Br (stereo not drawn) [Q.146]
≥ 50%: all assays above

CCN(C)/C=N/c1cc(Br)c(OCc2ccccc2SC)nc1C [Q.335]
≥ 50%: all assays above

CCN(C)/C=N/c1cc(Br)c(OC(C)c2ccc3c(c2)CCCC3)nc1C (stereo not drawn) [Q.238]
≥ 50%: all assays above

CCc1cc(/N=C/N(C)CC)c(C)nc1OC(C)c1cc(F)cc(F)c1 (stereo not drawn) [Q.228]
≥ 50%: all assays above

CCN(C)/C=N/c1cc(Br)c(OCc2ccc(Cc3ccccc3)cc2)nc1C [Q.121]
≥ 50%: all assays above

CCN(C)/C=N/c1cc(C(F)F)c(OC(C)c2cc(F)cc(F)c2)nc1C (stereo not drawn) [Q.215]
≥ 50%: all assays above

CCN(C)/C=N/c1cc(Br)c(OCc2ccc(F)c(F)c2)nc1C [Q.206]
≥ 50%: all assays above

C#Cc1cc(/N=C/N(C)CC)c(C)nc1OC(C)c1cc(F)cc(F)c1 (stereo not drawn) [Q.229]
≥ 50%: all assays above

CCN(C)/C=N/c1cc(Br)c(OC2Cc3ccc(Cl)cc3C2)nc1C (stereo not drawn) [Q.233]
≥ 50%: all assays above

C=Cc1ccccc1COc1nc(C)c(/N=C/N(C)CC)cc1Br [Q.275]
≥ 50%: all assays above

Cc1nc(OC2CCC3(CC2)OCCO3)c(Br)cc1/N=C/N(C)C [Q.054]
≥ 50%: all assays above

CCN(C)/C=N/c1cc(Br)c(OC(C)c2ccncc2)nc1C (stereo not drawn) [Q.117]
≥ 50%: all assays above

CCN(C)/C=N/c1cc(Br)c(OC2CCc3cccc(OC)c3C2)nc1C (stereo not drawn) [Q.024]
≥ 50%: all assays above

CCN(C)/C=N/c1cc(Br)c(OCCCc2ccccc2)nc1C [Q.100]
≥ 50%: all assays above

CCN(C)/C=N/c1cc(Br)c(OC2CCC(C)=C(C)CC2)nc1C [Q.231]
≥ 50%: all assays above

CCN(C)/C=N/c1cc(Br)c(OC2Cc3ccc(OC)cc3C2)nc1C (stereo not drawn) [Q.199]
≥ 50%: all assays above

CCN(C)/C=N/c1cc(Br)c(O[C@H]2C[C@@H]3ON=C(C)[C@@H]3C2)nc1C [Q.070]
≥ 50%: all assays above

CCN(C)/C=N/c1cc(Br)c(OC2CCC(OC)CC2)nc1C (stereo not drawn) [Q.166]
≥ 50%: all assays above

CCN(C)/C=N/c1ccc(O[C@H]2CC[C@H](CC)CC2)nc1C [Q.380]
≥ 50%: all assays above

CCN(C)/C=N/c1cc(Br)c(OCc2ccns2)nc1C [Q.143]
≥ 50%: all assays above

CCN(C)/C=N/c1cc(Br)c(OCc2cc(OC)cc(OC)c2)nc1C [Q.370]
≥ 50%: all assays above

CCN(C)/C=N/c1cc(Br)c(O[C@@H](C)c2cc(F)cc(F)c2)nc1C [Q.260]
≥ 50%: all assays above

CCN(C)/C=N/c1cc(Br)c(OC2Cc3ccc(C#N)cc3C2)nc1C (stereo not drawn) [Q.376]
≥ 50%: all assays above

CCN(C)/C=N/c1cc(Br)c(OCc2cccc(I)c2)nc1C [Q.174]
≥ 50%: all assays above

CCN(C)/C=N/c1cc(Br)c(OC2CCCC(Oc3ccccc3)C2)nc1C (stereo not drawn) [Q.241]
≥ 50%: all assays above

CCCCOc1nc(C)c(/N=C/N(C)CC)cc1Br [Q.390]
≥ 50%: all assays above

CCN(C)/C=N/c1cc(Br)c(OC2CCc3ccc(C(C)=O)cc3C2)nc1C (stereo not drawn) [Q.033]
≥ 50%: all assays above

C=CC(C)Oc1nc(C)c(/N=C/N(C)CC)cc1Br (stereo not drawn) [Q.394]
≥ 50%: all assays above

CCN(C)/C=N/c1cc(Br)c(OC(C)c2cc(C)no2)nc1C (stereo not drawn) [Q.074]
≥ 50%: all assays above

CCN(C)/C=N/c1cc(Br)c(OCc2ccc(Cl)cc2)nc1C [Q.097]
≥ 50%: all assays above

CCN(C)/C=N/c1cc(Br)c(OC2Cc3ccc(Br)cc3C2)nc1C (stereo not drawn) [Q.196]
≥ 50%: all assays above

CC(=O)N1CCC(Oc2nc(C)c(/N=C/N(C)C)cc2Br)CC1 [Q.055]
≥ 50%: all assays above

CCN(C)/C=N/c1cc(Br)c(OC2Cc3cc(OC)c(OC)cc3C2)nc1C [Q.066]
≥ 50%: all assays above

CCN(C)/C=N/c1cc(Br)c(OC2CC=CCC2)nc1C (stereo not drawn) [Q.316]
≥ 50%: all assays above

CCN(C)/C=N/c1cc(Br)c(OC2CCc3ccc(C(C)O)cc3C2)nc1C (stereo not drawn) [Q.044]
≥ 50%: all assays above

CCN(C)/C=N/c1cc(Br)c(OCc2cccc(C#N)c2)nc1C [Q.155]
≥ 50%: all assays above
